“Also recorded” adds a separate entry of the source.
Target: T1, DPAGT1 (Homo sapiens, UniProt Q9H3H5)
T1 construct: full-length DPAGT1 bearing an additional tobacco etch virus (TEV) protease-cleavable N-terminal His6 tag; His6 with TEV protease cleavage site ([…]/S leader) (N, cleaved yes); made in house; host or cells: Spodoptera frugiperda Sf9 insect cells (baculovirus, pFB-LIC-Bse vector)
T1 sequence (Q9H3H5 with tags, fused parts or gaps): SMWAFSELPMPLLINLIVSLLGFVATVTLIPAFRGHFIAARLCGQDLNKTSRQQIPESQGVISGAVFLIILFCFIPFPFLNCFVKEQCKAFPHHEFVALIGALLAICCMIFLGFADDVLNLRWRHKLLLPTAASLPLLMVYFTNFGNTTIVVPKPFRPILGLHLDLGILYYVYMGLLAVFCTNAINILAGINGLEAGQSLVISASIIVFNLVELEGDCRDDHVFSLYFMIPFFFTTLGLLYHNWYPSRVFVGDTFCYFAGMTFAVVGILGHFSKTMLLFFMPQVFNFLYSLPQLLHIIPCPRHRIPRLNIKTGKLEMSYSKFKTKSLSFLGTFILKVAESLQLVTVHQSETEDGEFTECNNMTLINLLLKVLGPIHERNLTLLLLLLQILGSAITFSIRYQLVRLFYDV
Assay: DPAGT1 radiometric in vitro activity assay (end point, phosphorimaging of radio-TLC)
Type: biochemical
Conditions: for % Activity of DPAGT1 in the presence of a tunicamycin analogue compared to a negative control (GFB): Table S1, analogue 1 µM, DPAGT1 1 µM, dolichyl monophosphate 50 µM, UDP-GlcNAc(1-14C) 50 µM, 37 °C, 21 min, three biological replicates; for DPAGT1 inhibition (in words) / activity at 1 µM: inhibitor 1 µM; for DPAGT1 inhibition (in words): enzyme:inhibitor 1:1, substrates 50 µM; for activity at 1 µM: enzyme:inhibitor 1:1, read-out: retained DPAGT1 activity (% of WT activity)
Text: Figure 2 Design, synthesis and in vitro inhibitory activity of lipid-altered tunicamycins. (A) Structure of DPAGT1 in complex with tunicamycin[21] showing key interactions primarily along TMH5 that in concert with a Trp122 “lid” create the lipid-engagement site (blue). This engagement contrasts with a small, gated pocket below bounded primarily by Leu293 in which only smaller moieties (here an acetamide) are accommodated (red). (B) Guided by this structure, as an apparent snapshot of a Michaelis complex-like mode of binding, modulation at two acyl sites in the core scaffold was explored. […] Semisynthesis allowed generation of graduated lipid tunicamycin analogues through regiochemical differentiation in carbamoylation to generate two key divergent intermediates: Tun-0E,0G and Tun-0E,2G. Subsequent differential acylations allow for generation of both symmetric and asymmetric Tun-XE,YG analogues. Reagents and conditions: (a) Ac2O, pyridine; (b) Boc2O, DMAP, THF; (c) NaOMe, MeOH; (d) 4 M HCl in dioxane, MeOH; (e) HATU, DIPEA, octanoic acid, DMF; (f) HATU, DIPEA, carboxylic acid; (g) HATU, DIPEA, 2 × carboxylic acid. (C) Residual % in vitro activity of DPAGT1 following incubation with analogues [DPAGT1 ([…]), MgCl2 (5 mM), Tun analogue ([…]), dolichol phosphate ([…]), and UDP-GlcNAc(1-^14C) ([…]) in 1% OGNG/CHS/cardiolipin] was assessed through end point assay at 37 °C via phosphorimaging. These were determined on the basis of three biological replicates, each using three technical replicates. Error bars shown are standard deviations.
The intended targeting and graduated modulation of DPAGT1’s PNPT activity was assessed in vitro using a highly pure recapitulated source. Briefly, full-length DPAGT1 bearing an additional tobacco etch virus (TEV) protease-cleavable N-terminal His6 tag was expressed using a baculovirus (DH10Bac)/insect cell (Spodoptera frugiperda Sf9) system using a pFB-LIC-Bse expression vector. DPAGT1 is an integral transmembrane enzyme, and thus, after harvesting and lysis, protein was extracted from the expression host membrane fraction using octyl glucose neopentyl glycol (OGNG) (1% w/v) and cholesterylhemisuccinate (CHS) (0.1% w/v) before isolation and purification by immobilized metal affinity chromatography (IMAC) using a Co^2+-charged (“TALON”) resin and elution with an imidazole gradient. To ensure that there were no confounding effects of the His6 tag, this was then cleaved with TEV protease followed by reverse IMAC and size exclusion chromatography in sequence.
Radiometric bisubstrate analyses allowed excellent sensitivity under the conditions necessary for proper recapitulation of the activity. Purified DPAGT1 (1 μM) was incubated with both substrates, dolichol monophosphate and radiolabeled UDP-N-acetyl-D-[1-^14C]glucosamine, at 50 μM, and the activity was determined directly by end point phosphor detection of product dolichol-PP-N-acetyl-D-[1-^14C]glucosamine formation.
MgCl2, 10 mM imidazole (pH 8.0), 200 mM NaCl , 2 mM TCEP (added fresh), 5% Glycerol, 0.18% OGNG, 0.01 8% CHS, 0.0036% cardiolipin) and the protein was eluted with WB supplemented with 250 mM imidazole (pH 8.0). The eluted protein was desalted using PD-10 columns (GE Healthcare) pre-equilibrated with gel filtration buffer (GFB: 20 mM HEPES (pH […]
cardiolipin). Desalted protein was subsequently treated with 10:1 TEV protease (w:w, protein:enzyme) overnight at 4 ° C. The TEV protease treated protein was separated from the 6-His-tagged enzymes and uncleaved DPAGT1 by incubation for 1 h with Talon resin (prepared as described above) at 4 °C for 1 h. The resin was collected in a column, the flowthrough collected and the protein sample was centrifuged at 21,500 rpm in a Beckman TA25.5 rotor for 10 min at 4 ° C. The supernatant was then concentrated to 0.5 mL using a 30 kDa cutoff PES concentrator (Corning), with mixing every 5 mins during concentration. The […]

Compound	% Activity of DPAGT1 in the presence of a tunicamycin analogue compared to a negative control (GFB) [%]	DPAGT1 inhibition (in words)	activity at 1 µM [%]
CCCCCCCCC(=O)N[C@H]1[C@H](O[C@H]2O[C@H](CO)[C@@H](O)[C@H](O)[C@H]2NC(=O)CCCCCCCC)O[C@H](C[C@@H](O)[C@H]2O[C@@H](n3ccc(=O)[nH]c3=O)[C@H](O)[C@@H]2O)[C@H](O)[C@@H]1O [Tun-9E,9G]	79.6	little to no significant inhibition; also recorded: minimal DPAGT1 inhibition	
tunicamycin [reference compound]	0.18	complete inhibition	
CCCCCCCCC(=O)N[C@H]1[C@H](O[C@H]2O[C@H](CO)[C@@H](O)[C@H](O)[C@H]2NC(=O)CC(C)C)O[C@H](C[C@@H](O)[C@H]2O[C@@H](n3ccc(=O)[nH]c3=O)[C@H](O)[C@@H]2O)[C@H](O)[C@@H]1O [Tun-9E,i5G]	54.8	increasing inhibitory activity in a graduated manner	55
CCCCCCCC(=O)N[C@H]1[C@H](O[C@H]2O[C@H](CO)[C@@H](O)[C@H](O)[C@H]2NC(C)=O)O[C@H](C[C@@H](O)[C@H]2O[C@@H](n3ccc(=O)[nH]c3=O)[C@H](O)[C@@H]2O)[C@H](O)[C@@H]1O [Tun-8E,2G]	35.4	increasing inhibitory activity in a graduated manner	35
CCCCCCCCC(=O)N[C@H]1[C@@H](O[C@@H]2O[C@H](C[C@@H](O)[C@H]3O[C@@H](n4ccc(=O)[nH]c4=O)[C@H](O)[C@@H]3O)[C@H](O)[C@H](O)[C@H]2NC(=O)CCC)O[C@H](CO)[C@@H](O)[C@@H]1O [Tun-4E,9G]	93.6	little to no significant inhibition; also recorded: minimal DPAGT1 inhibition	
